Values after ≈ are worked out from the molar mass of the structure shown. “Also recorded” adds a separate entry of the source.
Key:
GyrBA59 = biological target: T1, GyrBA59 (Escherichia coli, UniProt P0AES4+P0AES6); assay: DNA cleavage assay; type: biochemical, E. coli; conditions: 5 nM – 5120 nM albicidin, pBR322, 1.4 mM ATP
T1 construct: combining the full-length GyrB and a C-terminally truncated GyrA segment (59 kDa); a C-terminally truncated GyrA segment (59 kDa); 6x His (TEV-cleavable) (N, cleaved yes); made in house; host or cells: E. coli BL21 DE3, pET-28a(+)
Description: E. coli DNA gyrase cleavage assays were performed by incubating 250 ng of supercoiled pBR322 plasmid DNA (Inspiralis, Norwich, UK) with 25 nM of GyrBA59 protein in 20 µL reactions containing 35 mM Tris-HCl (pH 8.0), 24 mM KCl, 4 mM MgCl2, 2 mM DTT, 1.8 mM spermidine, 1.4 mM ATP, 6.5% (w/v) glycerol, and 0.1 mg mL^−1 bovine serum albumin in the presence or absence of various concentrations of albicidin (final concentration of 5% dimethyl sulfoxide (DMSO), incubation at 37 °C for 30 min). Linearized DNA was released by further incubation with 0.2% (w/v) SDS and 0.1 mg mL^−1 proteinase K (Promega, Madison, USA) at 37 °C for 30 min. The reaction was stopped by addition of 20 µL of reaction stop buffer (STEB buffer) (40% (w/v) sucrose, 100 mM Tris-HCl (pH 8.0), 10 mM EDTA, and 0.5 mg mL^−1 Bromophenol Blue) and precipitation using 30 µL of chloroform/isoamyl alcohol 24:1 (v:v). Samples were analyzed by electrophoresis in 1% w/v agarose gel containing 0.5 […] followed by photography under ultraviolet illumination.

AlbA = biological target: AlbA; design: method as in PMID 9493391; conditions: read-out: previously reported Kd; cited from earlier work
AlbASNTD = AlbASNTD (Klebsiella oxytoca, UniProt Q8KRS7); assay: Fluorescence quenching binding assay with AlbASNTD; conditions: AlbASNTD 100 nM, n constrained to 1
Description: Fluorescence quenching measurements were performed by monitoring tryptophan fluorescence of AlbAS (20 nM), AlbAL (20 nM), AlbASNTD, and AlbASCTD (100 nM) on a FluoroMax 2 spectrometer from Horiba (Potsdam, Germany). The excitation wavelength was set to λexc = 280 nm. Emission spectra were recorded from λem = 290–450 nm with a scanning speed of 1 nm s^−1 and an integration time of 1 s. The excitation and emission slit widths were set to 8 and 4 nm, respectively. Proteins were solved in 50 mM sodium phosphate buffer with 150 mM NaCl and 0.01% DMSO at pH 6.8. All measurements were performed twice and the standard deviation is given for the Kd and the Hill factor n. Data evaluation was performed by integration of the emission band (318–410 nm for AlbAS, 316–412 nm for AlbAL, and 319–390 nm for AlbASNTD and AlbASCTD) for every titration step. The area under the curve (AUC) of the buffer blank (buffer with 0.01% DMSO) was subtracted from the measured titration data. The quenching factor was determined by subtraction of AUCs for each titration step from the AUC of the protein in the absence of ligand. For determination of the AlbAS– and AlbAL–albicidin Kd values, the data were fitted to Eq. (2).2 Y=Bmax[L]^n/Kdn+[L]^n where [L], n, and Bmax denote the total ligand concentration, the Hill coefficient, and the maximum binding capacity of the protein, respectively.

E. coli DH5α = assay: Agar diffusion assay; type: cell-based
Description: To verify the neutralizing ability of AlbAS, AlbAL, AlbASM, AlbASCTD, or AlbASNTD against different compounds, agar diffusion assays with the respective compounds were performed. An overnight culture of E. coli DH5α was diluted to an OD600 of 0.05 with 0.75% LB-agar. The protein-albicidin reaction mixture consisted of a 1:1 mixture of 40 μM albicidin (or derivatives) with 40 μM protein (either AlbAS or its variants AlbAL, AlbASM, AlbASNTD, and AlbASCTD). The mixture was incubated for 20 min at room temperature in the dark. Reaction mixtures of 30 μL were transferred in triplicates of 2 mm holes on the inoculated agar plate. The plates were evaluated concerning growth-inhibition zone after incubation for 18 h at 37 °C.

Salmonella enteritidis = system: Salmonella enteritidis; design: method as in PMID 17074789, PMID 25504839; conditions: cited from earlier work
Escherichia coli = system: Escherichia coli; design: method as in PMID 17074789, PMID 25504839; conditions: cited from earlier work

Chain of AlbASNTD (Q8KRS7 entry or part of it): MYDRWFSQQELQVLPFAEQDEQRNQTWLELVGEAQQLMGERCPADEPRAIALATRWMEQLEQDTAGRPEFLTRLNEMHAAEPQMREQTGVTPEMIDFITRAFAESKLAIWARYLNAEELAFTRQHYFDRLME
T1 sequence (P0AES4 whole entry, looked up, other chains not shown, the tested form may be a part): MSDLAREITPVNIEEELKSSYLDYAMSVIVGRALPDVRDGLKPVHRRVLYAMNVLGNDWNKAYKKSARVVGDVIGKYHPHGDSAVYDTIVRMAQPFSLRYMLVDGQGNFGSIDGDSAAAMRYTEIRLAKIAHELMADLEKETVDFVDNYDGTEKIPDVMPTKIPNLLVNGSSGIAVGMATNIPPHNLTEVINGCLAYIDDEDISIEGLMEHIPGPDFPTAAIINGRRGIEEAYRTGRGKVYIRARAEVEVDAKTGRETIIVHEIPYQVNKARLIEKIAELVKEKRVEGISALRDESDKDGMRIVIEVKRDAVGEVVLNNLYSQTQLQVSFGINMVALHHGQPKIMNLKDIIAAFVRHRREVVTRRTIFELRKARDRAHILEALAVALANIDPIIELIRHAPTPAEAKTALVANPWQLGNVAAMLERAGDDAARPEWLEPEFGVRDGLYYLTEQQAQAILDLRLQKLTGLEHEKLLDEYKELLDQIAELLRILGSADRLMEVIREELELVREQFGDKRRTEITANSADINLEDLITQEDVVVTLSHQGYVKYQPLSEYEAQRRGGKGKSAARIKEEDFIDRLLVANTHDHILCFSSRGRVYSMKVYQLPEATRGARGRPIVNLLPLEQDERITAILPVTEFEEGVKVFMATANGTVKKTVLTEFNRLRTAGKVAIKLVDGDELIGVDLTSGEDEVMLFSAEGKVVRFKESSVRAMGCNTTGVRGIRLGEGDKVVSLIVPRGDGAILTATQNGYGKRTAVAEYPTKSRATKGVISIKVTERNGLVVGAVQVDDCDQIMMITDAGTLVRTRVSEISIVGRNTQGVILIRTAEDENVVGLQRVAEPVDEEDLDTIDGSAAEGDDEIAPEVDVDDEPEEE

## COc1c(NC(=O)c2ccc(NC(=O)c3ccc(NC(=O)[C@H](CC#N)NC(=O)c4ccc(NC(=O)/C(C)=C/c5ccc(O)cc5)cc4)cc3)c(OC)c2O)ccc(C(=O)O)c1O [albicidin]
GyrBA59
  stabilization of DNA cleavage complex (in words): stabilizing the cleavage complex
AlbA
  Kd: 0.064 µM
AlbASNTD
  Kd: 3.4 ± 0.2 µM
E. coli DH5α; 40 µM compound pre-incubated with 40 µM AlbAL
  neutralization of antibacterial activity by AlbAL: albicidin-neutralizing effect
E. coli DH5α; 40 µM compound pre-incubated with 40 µM AlbAS
  neutralization of antibacterial activity by AlbAS: albicidin-neutralizing effect
E. coli DH5α; 40 µM compound with 40 µM AlbASCTD
  neutralization of antibacterial activity by AlbASCTD: failed to suppress the antibacterial effects; also recorded: not able to neutralize albicidin
E. coli DH5α; 40 µM compound with 40 µM AlbASM
  neutralization of antibacterial activity by AlbASM (N75A, R181A, Q205A): not capable of efficiently suppressing the antibacterial activity
E. coli DH5α; 40 µM compound with 40 µM AlbASNTD
  neutralization of antibacterial activity by AlbASNTD: failed to suppress the antibacterial effects; also recorded: not able to neutralize albicidin
Salmonella enteritidis
  MIC: 0.5 µg/mL (≈ 0.593 µM)
Escherichia coli
  MIC: 0.063 µg/mL (≈ 0.0747 µM)

Reference: article PMC6078987, “Molecular insights into antibiotic resistance - how a binding protein traps albicidin” (Nature Communications, 2018)
